We go through 1 compound from publication PMC11940764 (2025).

Test [1] relates to poly(A) (RNA, polymer) A. Description: fluorescence titration, site-independent model. The note with it: TE buffer (Tris-HCl 10 mM, EDTA 1 mM) pH 8.0; dye 1 µM; unit not given.
Test [2] relates to poly(A)·poly(U) (RNA, polymer) A/U. The test can be described thus: fluorescence titration; CD (exciton-coupled ICD). The conditions noted are these: fluorescence: TE buffer pH 8.0, dye 1 µM; CD: phosphate buffer 10 mM pH 7.5; no Kb given.

SMILES strings stand for the structures.

As for `COc1cc2c(/C=C3/Sc4ccccc4N3C)cc[n+](C)c2cc1OC`, in test [1], the Kb is 9.5 × 10^6. For the same compound, the binding entry in test [2] is on record as “yes”.
